Test results from US8975275B2, “Use of chemotherapeutic agents” (priority 1999, dated 2015).
Structures can show the parent of a compound that is named as a salt.

What was measured:
Assay type in all cases: in vivo, human
[1] = tested on: infected root canal and periapical region; experiment: Topical treatment of the infected root canal and the periapical region (patient cases)
Method: In the clinical use of the compounds of formula (I) or formula (II), the pulp residues are removed first. The preparation of the canals is carried out with minimum discomfort for the patient. The canals are then flushed with hydrogen peroxide, Other methods of disinfection can be omitted. The compounds of formula (I) or formula (II), in a liquid form of administration, are then introduced into the toot canal under pressure using a cannula. The compounds of formula (I) or (II) are then injected in dissolved form or in a gelatinous form of administration. The root canal is subsequently occluded in the crown region, first with a cotton wool plug and then with zinc phosphate cement to seal the margins. If the canals are not gangrenous, the antibiotics remain in the canals for 3 days. […] The compounds of formula (I) or formula (II) can be used in concentrations of 0.005 mg/ml to 200 mg/ml.
In this application technique, which is known from intraligamental anaesthesia, the tooth is completely flooded with the antibacterial solution of the compounds of formula (I) or formula (II) in the entire root region.

[2] = tested on: pulpitis due to carious diseases; experiment: Topical treatment of pulpitis due to carious diseases (patient cases)
Text: This is of great importance because, for example in the case of caries profunda, it is always necessary to decide whether softened residual dentin can be left over the pulp. By virtue of complete elimination of the microbes present, there is now a novel method of treatment wherein a thin softened dentin covering can be left if the compounds of formula (I) or formula (II) are used. This method of treatment makes it possible to free infected dentin layers of microbes and to stop pulp infections. This means that pain reactions are eliminated and pulp infections are to a certain extent cured. The pulp remains vital. The topical application of the compounds of formula (I) or formula (II) followed the removal of the carious dentin. The compounds of formula (I) or formula (II) were applied for example in aqueous solution, in a form of gelatinous consistency or on an inert carrier, for example by means of a cotton wool plug. The overlying cavity was occluded with a cement to seal the margins. The cotton wool plug was left in the cavity for three to six days. The compounds of formula (I) or formula (II) can be used in concentrations of 0.005 mg/ml to 200 mg/ml, Preferred concentrations are those ranging from 0.5 mg/ml to 150 mg/ml and particularly preferred concentrations are those ranging from 10 to 100 mg/ml.

[3] = tested on: wounds, bacterial skin infections, diabetic foot syndrome; experiment: Wound care: topical/local application (patient cases); conditions: for wound check-up, ulcer c) / wound check-up, ulcer a) / wound check-up, ulcer b): Patient D 3; for wound check-up: Patient D 4
Text: Postoperative wound infections can generally occur in cases of inadequate infection prophylaxis following surgical interventions. Posttraumatic wound infections can arise due to cuts, stings, bruises, bites or gunshot wounds. Local perioperative prophylaxis can be carried out in the case of aseptic operations with a slight risk of infection. It is also possible to use local perioperative prophylaxis in addition to systemic perioperative prophylaxis, for example in the case of infections with an increased risk of infection, such as implantations, heart operations, transplantations, neurosurgical operations, operations in a highly contaminated area such as the oral cavity, oesophagus, rectum or colon, hysterectomy, bile duct operations, operations on patients with lowered resistance, or amputations. The local treatment of first, second or third degree burns can be administered prophylactically or after infection. […] Examples of hand infections are panaritium cutaueum, panaritium subcutaneum, panaritium ossale, panaritium articulate or tendovaginitis purulenta. In postoperative sepsis the infected wounds can be rendered substantially or completely free of microbes by the topical application of antibacterial agents. Gangrenes can be handled by local treatment with antibiotics in addition to therapy with parenteral antibiotics. Examples of acute bacterial skin infections are pyoderma, erysipelas, furuncles, carbuncles, phlegmons, abscesses, ulcus cruris, diabetic foot, infected decubital ulcers, blood blisters, erysipeloids or erytlrasma. Examples of chronic bacterial skin infections are lupus vulgaris, swimming-pool granuloma, Buruli ulcers or actinomycosis. Secondary bacterial infections occur for example in virus infections such as herpes simplex, herpes zoster or chicken-pox. Secondary bacterial infections of dermatoses occur for example in eczema, the exudation stage of neurodermatitis, vesicular dermatoses or contact dermatitis. Milder and moderate forms of acne and rosacea can also be treated locally.

[4] = gel (1%) weekly, after 2nd week

COc1c(N2C[C@@H]3CCCN[C@@H]3C2)c(F)cc2c(=O)c(C(=O)O)cn(C3CC3)c12 [moxifloxacin hydrochloride, 1-cyclopropyl-6-fluoro-1,4-dihydro-8-methoxy-7-[(4aS,7aS)-octahydro-6H-pyrrolo[3,4-b]pyridin-6-yl]-4-oxo-3-quinolinecarboxylic acid]
clinical finding at check-up ([1]; Patient A 3.11, tooth 34 apical periodontitis, fistula, root canal insert gel 100 mg/ml, check-up after 10 days): patient symptom-free | clinical finding at check-up ([1]; Patient A 3.12, tooth 44 fistulation, gangrenous, solution 50 mg/ml by paper point + intraligamental injection 50 mg/ml, check-up after 8 days): patient symptom-free | clinical finding at check-up ([1]; Patient A 3.15, tooth 31 apical periodontitis due to gangrene, solution 50 mg/ml + gel 50 mg/ml + intraligamental injection 50 mg/ml, check-up after 9 days): patient symptom-free, canal odourless | clinical finding at check-up ([1]; Patient A 3.21, repetition of flushing and insert, check-up after 10 days): patient symptom-free | clinical finding at check-up ([1]; Patient A 3.21, tooth 22 fistula, gangrenous, flushing solution 50 mg/ml + gel 50 mg/ml + intraligamental injection 50 mg/ml, check-up after 8 days): patient still not fully symptom-free, canal still had very slight odor | clinical finding at check-up ([1]; Patient A 3.3, tooth 11 apical periodontitis due to gangrene, solution 50 mg/ml + gel 50 mg/ml + intraligamental injection 50 mg/ml, check-up after 3 days): patient symptom-free, canal odourless | clinical finding at check-up ([1]; Patient A 3.4, tooth 11 apical periodontitis, not gangrenous, root canal insert gel 50 mg/ml, check-up after 3 days): patient symptom-free | clinical finding at check-up ([1]; Patient A 3.5, tooth 35 apical periodontitis due to gangrene, solution 50 mg/ml + gel 50 mg/ml + intraligamental injection 50 mg/ml, check-up after 7 days): no gangrenous odour, no bite discomfort | clinical finding at check-up ([1]; Patient A 3.6, tooth 36 apical periodontitis due to gangrene, gel 50 mg/ml + intraligamental injection 50 mg/ml, check-up after 8 days): no gangrenous odour, patient symptom-free | clinical finding at check-up ([1]; Patient A 3.7, tooth 14 apical periodontitis due to gangrene, gel 100 mg/ml + intraligamental injection 50 mg/ml, check-up after 7 days): patient symptom-free | clinical finding at check-up ([1]; Patient A 3.8, tooth 34 apical periodontitis due to gangrene, gel 50 mg/ml + intraligamental injection 50 mg/ml, check-up after 13 weeks): patient symptom-free, canal odour-free | clinical finding at check-up ([1]; Patient A 3.9, tooth 46 apical periodontitis, not gangrenous, gel 100 mg/ml + intraligamental injection 50 mg/ml, check-up after 7 days): patient symptom-free | clinical finding at check-up ([2]; Patient A 1.1, gel 25 mg/ml, after final filling, check-up after 3 weeks): tooth vital, patient symptom-free | clinical finding at check-up ([2]; Patient A 1.10, teeth 16, 17, 27, 36, 37, 46 occlusal caries, pellet inserts gel 50 mg/ml, check-up after 14 days): patient symptom-free, teeth vital | clinical finding at check-up ([2]; Patient A 1.1, tooth 24 carious defect, pellet insert gel 25 mg/ml, check-up after 4 days): patient was symptom-free | clinical finding at check-up ([2]; Patient A 1.2, gel 50 mg/ml, after final filling, check-up after 14 days): teeth vital, patient symptom-free | clinical finding at check-up ([2]; Patient A 1.2, teeth 11, 13 carious defects, pellet inserts gel 50 mg/ml, check-up after 1 week): teeth 11 and 13 symptom-free | clinical finding at check-up ([2]; Patient A 1.3, gel 25 mg/ml, repetition of insert, check-up after 3 days): tooth vital, patient symptom-free | clinical finding at check-up ([2]; Patient A 1.3, tooth 24 carious defect, pellet insert gel 25 mg/ml, check-up after one week): still slight discomfort of unknown origin | clinical finding at check-up ([2]; Patient A 1.4, major mesial carious defect, night pain, pellet inserts gel 50 mg/ml, check-up after 7 days): patient symptom-free, tooth vital | clinical finding at check-up ([2]; Patient A 1.5, tooth 13 weakly vital, night pain, pellet insert gel 50 mg/ml, check-up after 4 days): patient symptom-free, tooth vital | clinical finding at check-up ([2]; Patient A 1.6, gel 50 mg/ml, repetition of insert, check-up after 7 days): patient symptom-free, tooth vital | clinical finding at check-up ([2]; Patient A 1.6, tooth 36 reduced vitality, pellet insert gel 50 mg/ml, check-up after 6 days): still slight sensitivity to heat and cold | clinical finding at check-up ([2]; Patient A 1.7, tooth 44 reduced vitality, pellet inserts gel 50 mg/ml, check-up after 4 days): patient symptom-free | clinical finding at check-up ([2]; Patient A 1.8, tooth 36 reduced vitality, pellet insert gel 50 mg/ml, check-up after 3 weeks): patient symptom-free, tooth vital | clinical finding at check-up ([2]; Patient A 1.9, tooth 27, pellet insert gel 25 mg/ml, check-up after 7 days): patient symptom-free, tooth vital | wound outcome ([3]; Patient D 1, combustio escharotica on left forearm, gel (1%), after one week): Regeneration of skin epithelium with complete wound closure | wound check-up, ulcer c) ([3]; D IV/D V, gel (1%) weekly, after 2nd week): ulcer C IV/D V healed | wound check-up, ulcer a) ([3]; deep 2×1.5 cm greasy ulcer under right big toe, dressings with gel (1%) at weekly intervals, after 1st week): ulcer D I, 1×0.5 cm, clean | wound check-up, ulcer a) [3, 4]: ulcer D I pinhead-size, clean | wound check-up, ulcer a) ([3]; gel (1%) weekly, after 3rd week): ulcer D I unchanged | wound check-up, ulcer a) ([3]; gel (1%) weekly, after 4th week): ulcer D I healed | wound check-up, ulcer c) ([3]; large fissure D IV/D V, dressings with gel (1%) at weekly intervals, after 1st week): ulcer D IV/D V encrusted | wound check-up, ulcer b) ([3]; large ulcer D III, dressings with gel (1%) at weekly intervals, after 1st week): ulcer D III clean | wound check-up, ulcer b) ([3]; ulcer D III, gel (1%) weekly, after 2nd week): ulcer D III, clean granular tissue | wound check-up, ulcer b) ([3]; ulcer D III, gel (1%) weekly, after 3rd week): ulcer D III pinhead-size | wound check-up, ulcer b) ([3]; ulcer D III, gel (1%) weekly, after 4th week): ulcer D III healed | wound check-up ([3]; diabetic foot syndrome, 1×1 cm greasy ulcer, dressings with gel (1%) at weekly intervals, after 1st week): ulcer 0.2×0.4 cm, clean | wound check-up [3, 4]: ulcer healed | wound outcome ([3]; Patient D 5, diabetic gangrene on left big toe, four applications of gel (1%) at weekly intervals): Regeneration of skin epithelium with complete wound closure, revascularization | clinical outcome ([3]; Patient D 7, phlegmons on palm of left hand, incision, local antibiosis with gel (1%), repeated after 2 days): Patient symptom-free | clinical outcome ([3]; Patient D 9, carbuncle on back of neck, excision, open wound treatment with impregnated compress): Patient symptom-free
